Some results are limits rather than exact numbers.

The test deals with T1, Polyunsaturated fatty acid 5-lipoxygenase (Homo sapiens, UniProt P09917).
T1 sequence (P09917 whole entry): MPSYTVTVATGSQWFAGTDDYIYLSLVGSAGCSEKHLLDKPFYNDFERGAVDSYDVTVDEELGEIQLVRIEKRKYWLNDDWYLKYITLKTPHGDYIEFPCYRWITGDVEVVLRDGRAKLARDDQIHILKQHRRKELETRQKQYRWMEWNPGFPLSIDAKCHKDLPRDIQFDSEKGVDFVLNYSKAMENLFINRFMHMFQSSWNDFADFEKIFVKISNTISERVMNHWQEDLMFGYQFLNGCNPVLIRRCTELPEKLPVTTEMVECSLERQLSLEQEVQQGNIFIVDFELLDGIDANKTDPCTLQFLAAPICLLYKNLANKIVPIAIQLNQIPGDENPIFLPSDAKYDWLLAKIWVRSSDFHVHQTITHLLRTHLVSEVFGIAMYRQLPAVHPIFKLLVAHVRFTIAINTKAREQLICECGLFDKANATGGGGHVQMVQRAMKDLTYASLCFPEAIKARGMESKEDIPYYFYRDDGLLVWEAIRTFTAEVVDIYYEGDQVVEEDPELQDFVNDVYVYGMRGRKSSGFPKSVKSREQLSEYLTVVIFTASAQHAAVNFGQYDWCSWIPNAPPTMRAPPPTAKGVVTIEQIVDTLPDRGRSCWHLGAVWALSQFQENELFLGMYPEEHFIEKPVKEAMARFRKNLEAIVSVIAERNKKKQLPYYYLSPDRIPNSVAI
The experiment in a line: 5-LO Activity Assay. As for the experimental part: Purified 5-LO was diluted in PBS containing EDTA (1 mM) and freshly added ATP (1 mM) and incubated with the myxochelin test substances for 10 min at 4°C, followed by 30 s at 37°C. Addition of CaCl2 (2 mM) and arachidonic acid (20 µM) initiatedthe 5-LO product formation. After 10 min, the reaction was terminated by adding ice-old MeOH (1 mL), and the production of 5-LO metabolites was analyzed by RP-HPLC.
As usually defined, the IC50 is the point on the concentration scale where inhibition reaches its midpoint. `O=C(NCCCC[C@@H](CO)NC(=O)c1cccc(O)c1O)c1cccc(O)c1O` [Myxochelin A]: the IC50 was 1.72 µM.
For `O=C(NCCCC[C@@H](CO)NC(=O)c1cccc(O)c1O)c1ccccc1` [Myxochelin J1], inhibition was half-maximal at 3.15 µM (IC50). Against the preceding compound, the IC50 is about 1.8-fold higher.
With `O=C(N[C@H](CO)CCCCNC(=O)c1cccc(O)c1O)c1ccccc1` [Myxochelin J2] the figure was 2.39 µM; with `O=C(NCCCC[C@@H](CO)NC(=O)c1cccc(O)c1O)c1ccccc1O` [Myxochelin J3], 1.52 µM.
The compound `O=C(N[C@H](CO)CCCCNC(=O)c1cccc(O)c1O)c1ccccc1O` [Myxochelin J4] had a half-maximal inhibitory concentration (IC50) of 3.54 µM. Compared with the last compound, the IC50 is about 2.3-fold higher.
With `O=C(NCCCC[C@@H](CO)NC(=O)c1ccccc1O)c1ccccc1O` [Myxochelin J5] the figure was 9.32 µM; with `O=C(N[C@H](CO)CCCCNC(=O)c1c(O)cccc1F)c1cccc(O)c1O` [Myxochelin J6], 1.44 µM; with `O=C(NCCCC[C@@H](CO)NC(=O)c1c(O)cccc1F)c1cccc(O)c1O` [Myxochelin J7], 1.18 µM.
With `O=C(NCCCC[C@@H](CO)NC(=O)c1c(O)cccc1F)c1c(O)cccc1F` [Myxochelin J8] the figure was 3.6 µM; with `O=C(NCCCC[C@@H](CO)NC(=O)c1cccc(O)c1O)c1ccccc1F` [Myxochelin J9], 8.4 µM; with `O=C(N[C@H](CO)CCCCNC(=O)c1cccc(O)c1O)c1ccccc1F` [Myxochelin J10], 8.09 µM.
With `O=C(NCCCC[C@@H](CO)NC(=O)c1ccccc1F)c1ccccc1F` [Myxochelin J11] the figure was > 10 µM; with `O=C(NCCCC[C@@H](CO)NC(=O)c1cccc(F)c1)c1cccc(F)c1` [Myxochelin J12], > 10 µM; with `O=C(NCCCC[C@@H](CO)NC(=O)c1cccc(O)c1O)c1ccccc1Cl` [Myxochelin J13], 4.6 µM.
The compound `O=C(N[C@H](CO)CCCCNC(=O)c1cccc(O)c1O)c1ccccc1Cl` [Myxochelin J14] returned an IC50 of 3.64 µM.
